The values that follow come from PMC4564189, “A Genetic Selection for dinB Mutants Reveals an Interaction between DNA Polymerase IV and the Replicative Polymerase That Is Required for Translesion Synthesis” (PLoS Genetics, 2015).

Experiment [1] concerns the target T1, Pol IV (E. coli DNA polymerase IV, DinB) (Escherichia coli, UniProt Q47155, T120P).
T1 construct: full-length, untagged as far as told, pET11a plasmid pRM112 (T7 promoter) and mutant derivatives, purified from E. coli; 351 residues
The experiment in a line: pre-steady-state single-nucleotide primer extension, […] gel assay. The experiment is classed as biochemical. The following applies: apparent Kd for dNTP, kpol given as kcat, 200 nM DNA, 400 nM polymerase, 10 mM MgCl2, pH 7.5, 25°C.

Experiment [2] concerns the target T2, Pol IV (E. coli DNA polymerase IV, DinB) (Escherichia coli, UniProt Q47155).
T2 construct: full-length, untagged as far as told, pET11a plasmid pRM112 (T7 promoter) and mutant derivatives, purified from E. coli; 351 residues
T2 sequence (Q47155 1-351): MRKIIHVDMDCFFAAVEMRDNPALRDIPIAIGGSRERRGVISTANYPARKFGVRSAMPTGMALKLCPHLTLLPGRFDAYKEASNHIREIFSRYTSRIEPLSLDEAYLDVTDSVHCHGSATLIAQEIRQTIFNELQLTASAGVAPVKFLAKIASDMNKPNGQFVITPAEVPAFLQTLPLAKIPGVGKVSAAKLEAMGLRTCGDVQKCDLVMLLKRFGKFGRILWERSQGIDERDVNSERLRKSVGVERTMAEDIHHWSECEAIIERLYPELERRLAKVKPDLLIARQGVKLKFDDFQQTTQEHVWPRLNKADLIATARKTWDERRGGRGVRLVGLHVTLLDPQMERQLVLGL
The experiment is described as above. It counts as biochemical. The following applies: apparent Kd for dNTP, kpol given as kcat, 200 nM DNA, 400 nM polymerase, 10 mM MgCl2, pH 7.5, 25°C.

The target in experiment [3] is Pol III core complex (Pol IIIαεθ) (E. coli) (UniProt P10443).
The mark [4] stands for this setting: undamaged template 13/20G (opposite dG).
Setting [5] is: undamaged template 13/20A (opposite dA).

T1 sequence (Q47155 whole entry T120P): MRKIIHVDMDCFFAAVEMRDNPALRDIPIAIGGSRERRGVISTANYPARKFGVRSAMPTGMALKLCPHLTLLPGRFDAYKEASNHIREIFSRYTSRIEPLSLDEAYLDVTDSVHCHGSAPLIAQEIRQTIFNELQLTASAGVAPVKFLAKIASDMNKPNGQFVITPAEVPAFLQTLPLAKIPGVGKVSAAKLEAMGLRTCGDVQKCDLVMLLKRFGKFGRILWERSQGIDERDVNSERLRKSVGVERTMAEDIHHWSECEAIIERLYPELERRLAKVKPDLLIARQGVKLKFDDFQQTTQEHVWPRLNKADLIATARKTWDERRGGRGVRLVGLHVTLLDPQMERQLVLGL

As to `Nc1ncnc2c1ncn2[C@H]1C[C@H](O)[C@@H](COP(=O)(O)OP(=O)(O)OP(=O)(O)O)O1` [dATP], the Kd in experiment [1] (template 13/20Sp (opposite abasic site), above highest dNTP tested (500 μM range)) is 460 ± 230 µM.

As to `Nc1ccn([C@H]2C[C@H](O)[C@@H](COP(=O)(O)OP(=O)(O)OP(=O)(O)O)O2)c(=O)n1` [dCTP], the Kd in experiment [1] (setting [4]) was 14 ± 3.3 µM; in experiment [2] (setting [4]) it was above 300 µM.

Regarding `Cc1cn([C@H]2C[C@H](O)[C@@H](COP(=O)(O)OP(=O)(O)OP(=O)(O)O)O2)c(=O)[nH]c1=O` [dTTP], the Kd came to 39 ± 9 µM in experiment [1] (setting [5]) and 207 ± 21 µM in experiment [2] (setting [5]).

B1: Pol IV catalytic domain (Pol IV^CD; residues 1–230) (domain or fragment)
chain: MRKIIHVDMDCFFAAVEMRDNPALRDIPIAIGGSRERRGVISTANYPARKFGVRSAMPTGMALKLCPHLTLLPGRFDAYKEASNHIREIFSRYTSRIEPLSLDEAYLDVTDSVHCHGSATLIAQEIRQTIFNELQLTASAGVAPVKFLAKIASDMNKPNGQFVITPAEVPAFLQTLPLAKIPGVGKVSAAKLEAMGLRTCGDVQKCDLVMLLKRFGKFGRILWERSQGID
Take B1: the Pol III processivity in the single-molecule primer extension assay; 900 nM Pol IV^CD (180-fold molar excess) with 5 nM Pol IIIαεθ, β clamp and τ3δδ'ψχ clamp loader (of the processivity without Pol IV^CD) in experiment [3] is 0.5.
